Reference: ChEMBL document CHEMBL6134779, “Design of Proteolytic-Resistant Antifungal Peptides by Utilizing Minimum d-Amino Acid Ratios” (J Med Chem, 2024)
≈ marks a conversion by molar mass, not a printed value. Calls of active or inactive are those of the source. The rule behind the calls is not given here.

What was measured:
Candida albicans [1] = assay: Antifungal activity against Fluconazole-resistant Candida albicans 58288 assessed as inhibition of fungal growth incubated for 48 hrs; type: functional
HEK293 [2] = assay: Cytotoxicity against HEK293 cells assessed as cell death at 64 uM measured after 8 hrs by calcein-AM and propidium iodide Live/Dead dye staining assay; type: toxicity, cell-based; conditions: human, hek293, 8 h
Candida albicans [3] = assay: Fungicidal activity against Candida albicans CGMCC 2.2086 measured up to 120 mins by time-kill assay; type: functional, organism-based
Candida albicans [4] = assay: Induction of Candida albicans CGMCC 2.2086 cell wall permeabilization by NPN probe based assay; type: functional, organism-based; conditions: dose 1-128 µM
[5] = Proteolytic stability of the compound assessed as chymotrypsin (unknown origin)-mediated drug degradation measured after 8 hrs by 16.5% tricine-SDS-PAGE analysis; type: ADME; conditions: human
Candida albicans [6] = assay: Induction of ROS generation in Candida albicans CGMCC 2.2086 measured after 60 mins by […] dye based fluorescence assay; type: functional, organism-based; conditions: dose 0.5-128 µM
Candida albicans [7] = assay: Antibiofilm activity against Candida albicans CGMCC 2.2086 assessed as inhibition of biofilm formation at antifungal MIC measured after 48 hrs by crystal violet staining based assay; type: functional
Candida albicans [8] = assay: Antifungal activity against Candida albicans CGMCC 2.2086 assessed as inhibition of fungal growth incubated for 48 hrs in presence of CaCl2; type: functional
Candida albicans [9] = assay: Antifungal activity against Candida albicans CGMCC 2.2086 infected in C57BL/6 mouse keratitis model assessed as increase in ocular transparency at 5 mg/ml administered as 10 uL eye drop every 5 mins for first 1 hr and every 30 mins for next 7 hrs; type: functional, organism-based; conditions: route ou, time 8.0 hrs
Candida albicans [10] = assay: Antifungal activity against Candida albicans CGMCC 2.2086 assessed as inhibition of fungal growth incubated for 2 hrs in presence of protease K; type: functional, organism-based
Candida albicans [11] = assay: Antifungal activity against Candida albicans CGMCC 2.2086 assessed as inhibition of fungal growth incubated for 48 hrs in presence of ZnCl2; type: functional
[12] = Stability of the compound in NH4Cl assessed as change in secondary structure by CD spectra analysis; type: physicochemical
Candida albicans [13] = assay: Antibiofilm activity against Candida albicans CGMCC 2.2086 assessed as eradication of mature biofilm at 4X MIC measured after 3 hrs by SYTO 9/propidium iodide staining based fluorescence microscopy; type: functional, organism-based
[14] = Hemolytic activity in human red blood cells assessed as hemolysis incubated for 1 hr; type: toxicity, cell-based, Erythrocyte
HEK293 [15] = assay: Cytotoxicity against HEK293 cells assessed as reduction in cell viability at 128 uM incubated for 4 hrs by MTT assay; type: toxicity, cell-based; conditions: human, hek293, 4 h
[16] = Proteolytic stability of the compound assessed as protease K (unknown origin)-mediated drug degradation measured after 8 hrs by 16.5% tricine-SDS-PAGE analysis; type: ADME; conditions: human
Candida albicans [17] = assay: Antifungal activity against Candida albicans CGMCC 2.2086 assessed as inhibition of fungal growth incubated for 48 hrs in presence of NaCl; type: functional
Candida albicans [18] = assay: Antifungal activity against Candida albicans 17546 assessed as inhibition of fungal growth incubated for 48 hrs; type: functional
Candida albicans [19] = assay: Antifungal activity against Candida albicans CGMCC 2.2086 assessed as inhibition of fungal growth incubated for 48 hrs in presence of NH4Cl; type: functional
Candida albicans [20] = assay: Antifungal activity against Candida albicans CGMCC 2.2086 assessed as inhibition of fungal growth incubated for 2 hrs in presence of chymotrypsin; type: functional, organism-based
Candida albicans [21] = assay: Induction of Candida albicans CGMCC 2.2086 cell wall permeabilization at 16 uM by NPN probe based assay relative to control; type: functional
Candida albicans [22] = assay: Antifungal activity against Candida albicans SP3876 assessed as inhibition of fungal growth incubated for 48 hrs; type: functional
[23] = Stability of the compound in NaCl assessed as change in secondary structure by CD spectra analysis; type: physicochemical
Candida albicans [24] = assay: Induction of morphological changes in Candida albicans CGMCC 2.2086 assessed as cell content leakage at 1X MIC measured after 60 mins by TEM analysis; type: functional, organism-based
[25] = Stability of the compound in ZnCl2 assessed as change in secondary structure by CD spectra analysis; type: physicochemical
Candida albicans [26] = assay: Antifungal activity against Candida albicans CGMCC 2.2086 infected in C57BL/6 mouse keratitis model assessed as reduction in clinical scores at 5 mg/ml administered as 10 uL eye drop every 5 mins for first 1 hr and every 30 mins for next 7 hrs; type: functional, organism-based; conditions: route ou, time 8.0 hrs
Candida albicans [27] = assay: Resistance development in Candida albicans CGMCC 2.2086 measured after 30 passages by broth microdilution method; type: functional, organism-based
[28] = Proteolytic stability of the compound assessed as chymotrypsin (unknown origin)-mediated drug degradation measured after 8 hrs by RP-HPLC analysis; type: ADME; conditions: human
Candida tropicalis = assay: Antifungal activity against Candida tropicalis CGMCC 2.1975 assessed as inhibition of fungal growth incubated for 48 hrs; type: functional
Candida albicans [29] = assay: Antifungal activity against Candida albicans CGMCC 2.2086 assessed as inhibition of fungal growth incubated for 48 hrs in presence of MgCl2; type: functional
Candida albicans [30] = assay: Induction of morphological changes in Candida albicans CGMCC 2.2086 assessed as appearance of cell pits at 1X MIC measured after 60 mins by SEM analysis; type: functional, organism-based
[31] = Stability of the compound in FeCl3 assessed as change in secondary structure by CD spectra analysis; type: physicochemical
Cell membrane = assay: Induction of cytoplasmic membrane depolarization in Candida albicans CGMCC 2.2086 at 0.5 to 2X MIC measured up to 3600 secs by DISC3-5 dye based fluorescence assay; type: subcellular; conditions: time <= 3600.0 sec
Candida albicans [32] = assay: Antifungal activity against Candida albicans CGMCC 2.2086 assessed as inhibition of fungal growth incubated for 2 hrs in presence of trypsin; type: functional, organism-based
Candida albicans [33] = assay: Antifungal activity against Candida albicans SP3931 assessed as inhibition of fungal growth incubated for 48 hrs; type: functional
Candida albicans [34] = assay: Antifungal activity against Candida albicans SP3903 assessed as inhibition of fungal growth incubated for 48 hrs; type: functional
Candida albicans [35] = assay: Antifungal activity against Candida albicans CGMCC 2.2086 assessed as inhibition of fungal growth incubated for 2 to 4 hrs in presence of 100% serum; type: functional, organism-based; conditions: time 2-4 hrs
Candida albicans [36] = assay: Antifungal activity against Fluconazole-resistant Candida albicans 56214 assessed as inhibition of fungal growth incubated for 48 hrs; type: functional
Candida albicans [37] = assay: Antifungal activity against Candida albicans CGMCC 2.2086 assessed as inhibition of fungal growth incubated for 48 hrs in presence of FeCl3; type: functional
Candida albicans [38] = assay: Antifungal activity against Candida albicans 56452 assessed as inhibition of fungal growth incubated for 48 hrs; type: functional
Candida albicans [39] = assay: Induction of morphological changes in Candida albicans CGMCC 2.2086 assessed as appearance of cell holes at 1X MIC measured after 60 mins by SEM analysis; type: functional, organism-based
[40] = Stability of the compound in MgCl2 assessed as change in secondary structure by CD spectra analysis; type: physicochemical
Candida albicans [41] = assay: Antifungal activity against Candida albicans SP3902 assessed as inhibition of fungal growth incubated for 48 hrs; type: functional
[42] = Hemolytic activity in human red blood cells assessed as hemolysis rate at 512 uM incubated for 1 hr relative to control; type: toxicity, cell-based, Erythrocyte; conditions: read-out: Activity

For `CC[C@H](C)[C@H](N)C(=O)N[C@H](C(=O)N[C@H](CCCNC(=N)N)C(=O)N[C@@H](CCCNC(=N)N)C(=O)N[C@@H](Cc1c[nH]cn1)C(=O)N[C@H](C(=O)N[C@H](C(=O)N[C@H](C(=O)N[C@H](C(=O)N[C@H](CCCNC(=N)N)C(=O)N[C@@H](CCCNC(=N)N)C(=O)N[C@@H](Cc1c[nH]cn1)C(=O)N[C@H](C(=O)N[C@H](C(=O)N[C@H](C(=O)N[C@H](C(=O)N[C@H](CCCNC(=N)N)C(=O)N[C@@H](CCCNC(=N)N)C(=O)N[C@@H](Cc1c[nH]cn1)C(=O)N[C@H](C(=O)N[C@H](C(N)=O)[C@@H](C)CC)[C@@H](C)CC)[C@@H](C)CC)[C@@H](C)CC)[C@@H](C)CC)[C@@H](C)CC)[C@@H](C)CC)[C@@H](C)CC)[C@@H](C)CC)[C@@H](C)CC)[C@@H](C)CC`, the MIC95 (Candida albicans [1]) was 2 µM (≈ 5.45 µg/mL), the Activity (HEK293 [2]) was “Toxic” and the Activity (Candida albicans [3]) was “Dose-dependent-effect”. For the same compound, the Activity (Candida albicans [4]) was “Dose-dependent-effect”, the Stability [5] was “Stable” and the Activity (Candida albicans [6]) was “Dose-dependent-effect”. The “inhibition (INH)” value (Candida albicans [7]) was 90%, the MIC95 (Candida albicans [8]) was 8 µM and the Activity (Candida albicans [9]) was “Active”. For the same compound, the Activity (Candida albicans [10]) was “Active”, the MIC95 (Candida albicans [11]) was 4 µM and the Stability [12] was “Stable”. For the same compound, the Activity (Candida albicans [13]) was “Active”, the HC50 at 1 h [14] was > 512 µM and the Activity (HEK293 [15]) was “Toxic”. For the same compound, the Stability [16] was “Stable”, the MIC95 (Candida albicans [17]) was 16 µM and the MIC95 (Candida albicans [18]) was 4 µM (≈ 10.9 µg/mL). The MIC95 (Candida albicans [19]) was 2 µM, the Activity (Candida albicans [20]) was “Active” and the Activity (Candida albicans [21]) was >100%. The MIC95 (Candida albicans [22]) was 2 µM (≈ 5.45 µg/mL), the Stability [23] was “Unstable” and the Activity (Candida albicans [24]) was “Active”. For the same compound, the Stability [25] was “Stable”, the Activity (Candida albicans [26]) was “Active” and the Activity (Candida albicans [27]) was “inactive”. The Stability [28] was “Stable”, the MIC95 (Candida tropicalis) was 2 µM (≈ 5.45 µg/mL) and the MIC95 (Candida albicans [29]) was 4 µM. For the same compound, the Activity (Candida albicans [30]) was “Active”, the Stability [31] was “Stable” and the Activity (Cell membrane) was “Active”. The Activity (Candida albicans [32]) was “Active”, the MIC95 (Candida albicans [33]) was 2 µM (≈ 5.45 µg/mL) and the MIC95 (Candida albicans [34]) was 2 µM (≈ 5.45 µg/mL). The “growth inhibition (GI)” value (Candida albicans [35]) was “Active; No Alterations In The Antimicrobial Activity Was Observed In Presence Of Serum”, the MIC95 (Candida albicans [36]) was 4 µM (≈ 10.9 µg/mL) and the MIC95 (Candida albicans [37]) was 8 µM. For the same compound, the MIC95 (Candida albicans [38]) was 2 µM (≈ 5.45 µg/mL), the Activity (Candida albicans [39]) was “Active” and the Stability [40] was “Stable”. For the same compound, the MIC95 (Candida albicans [41]) was 2 µM (≈ 5.45 µg/mL) and the hemolysis at 1 h, 512 µM [42] was 40.8%.
